Source: paper PMC10344656, “Plasma pharmacokinetics of tigolaner, emodepside, and praziquantel following topical administration of a combination product (Felpreva®) and of intravenous administration of the individual active ingredients in cats” (Current Research in Parasitology & Vector-borne Diseases, 2023)
Read-outs that look alike come from different tables or passages of the source.

Tests used:
[1] = Excretion in urine and faeces after topical Felpreva (Study 3); conditions: for route of clearance: in vivo
Experimental: Urine and faeces were collected from cats in Study 3 for analysis of excretion of the AIs. Sampling days per cat were study days 1, 2, 7, 14, 21 and 28. Cats were kept in stainless steel cages with a litter box for the collection of total urine and faeces. The total volume of urine was determined, thereafter 2 aliquots (A + B) of ∼5 ml urine were taken, collected in clear tubes and stored in a freezer set to maintain −18 °C. Faecal samples were weighed and stored in a freezer set to maintain −18 °C.
Urine samples were prepared for analysis by mixing 100 μl urine with 900 μl solvent mixture (as described above), containing labelled tigolaner and praziquantel as internal standards, and then centrifuged. […] The lower limit of quantitation was 1 μg/l.
Faecal samples were extracted by mixing 1 or 5 g faeces with 15 or 40 ml acetonitrile containing the internal standards. The mixture was ultrasonicated and shaken by means of an overhead shaker and then centrifuged. The supernatant was transferred into a flask and the residue extracted again with 5 or 30 ml extraction solvent, shaken, and centrifuged. The extracts were combined and filled up to 20 or 100 ml with extraction solvent containing the internal standards, then filtered. […] The limit of quantitation was 10 μg/kg for each analyte.

in vivo [2] = conditions: topical or ocular
Experimental: (§7) Altogether three studies were conducted. Cats were treated with Felpreva® (containing emodepside praziquantel and tigolaner) at the recommended dose (14.5 ​mg/kg tigolaner, 3 ​mg/kg emodepside and 12 ​mg/kg praziquantel) or at 2.5× and 5× the recommended dose. For intravenous (i.v.) injection (Study 1) tigolaner, emodepside and praziquantel were formulated in tetraglycol as 8.9%, 1.85% and 7.4% solutions, respectively.
(§8) All cats were healthy and acclimatized for a minimum of 7 days. In studies 1 and 2, cats were individually housed for 8 ​h or 10–12 days following i.v. or topical administration, respectively, to avoid potential cross-contamination between animals. After this period, cats were group-housed by treatment group and sex. In Study 3, cats were socially housed in groups of 3 (same sex/same dose group) in one or more connected similar cages. The exception was when cats were separated for designated study procedures/activities associated with dosing or urine and faeces collection.
(§9) In Study 1 where i.v. administration was performed, 6 animals per treatment group were treated with a slow manual i.v. bolus using a catheter placed in the Vv. saphena medialis or Vv. saphena lateralis, and suitable 1-ml single-use syringes. Catheters were placed immediately prior to administration and removed immediately afterwards. Tigolaner (in tetraglycol, C5H9O(OC2H4)nOH, CAS no. 31692-85-0) was administered at 1.5 ​mg/kg (volume: 70–80 ​μl), emodepside (in tetraglycol) was administered at 0.3 ​mg/kg (volume 40–70 ​μl) and praziquantel (in tetraglycol) was administered at 0.2 ​mg/kg (volume: 40–60 ​μl). Low dose rates were administered intravenously to ensure tolerance of an i.v. bolus. Where treatment was administered topically, a spot-on application was manually applied at the base of the head while the hair was divided with 2 fingers. In all studies, topical doses were calculated using individual BWs and the nominal content of the three AIs. The AIs were administered based on the licensed therapeutic dose of 14.5, 3 and 12 ​mg/kg BW for tigolaner, emodepside and praziquantel, respectively. Cats were restrained for approximately a minute following administration to aid spread of the applied formulation and to prevent any possible run-off. […] Cats were closely observed for 1 ​h after dosing and at least once daily thereafter.
(§10) Blood samples of ∼0.5 ​ml (Studies 1 and 2) and 1.0 ​ml (Study 3) were collected into EDTA K2E tubes from the Vv. cephalica antebrachii or another suitable vein. Plasma was harvested following centrifugation (10 ​°C, 3220× g for 10 ​min) and subsequently stored frozen at −18 ​°C.
(§11) Analysis of all samples was performed after finalisation of the biological part of the study. The plasma samples were deproteinised by mixing 100 ​μl of plasma with 900 ​μl of a precipitation mixture of 0.040 ​g ammonium acetate in 100 ​ml water plus 0.1 ​ml formic acid and 600 ​ml acetonitrile containing the internal standards praziquantel-cyclohexyl-d11and [^13C2H6] tigolaner and subsequent centrifugation. Analysis of the AIs tigolaner, emodepside, and praziquantel was conducted by using High Performance Liquid Chromatography with an Agilent Zorbax Eclipse Plus C18 Rapid Resolution, 2.1 ​× ​50 ​mm, 1.8 ​μm column, water/formic acid (1000/0.120, v/v) ​+ ​10 ​mMol/l ammonium formate and methanol/formic acid (1000/0.120, v/v) ​+ ​10 ​mMol/l ammonium formate as mobile phase (0–0.5 ​min at 90/10 v/v, gradient to 0/100 v/v at 3–3.5 ​min and gradient to 90/10 v/v at 4–5 ​min) at 60 ​°C with a flow of 0.6 ​ml/min. Detection was performed by Tandem Mass Spectrometry (HPLC-MS/MS) using a Sciex API 5500 mass spectrometer in the positive ionisation mode.

[3] = for AUClast/D (Geo CV%) / Cmax/D (Geo CV%): single topical Felpreva 1x, dose-normalised, geometric mean (geometric CV%)
Experimental: as §7, §8, §9, §10, §11

[4] = Plasma pharmacokinetics after single topical Felpreva at 2.5x and 5x dose multiples (Study 2); conditions: for AUC(0-inf): AUCinf; for AUC(0-inf) / half-life / Tmax / AUCinf / T1/2: n = 8, geometric mean; for Cmax: n = 8, plasma, geometric mean; for half-life: T1/2, cats; for AUClast/D (Geo CV%) / Cmax/D (Geo CV%): dose-normalised, geometric mean (geometric CV%)
Experimental: (§1) Altogether three studies were conducted.
(§2) Each AI and treatment were evaluated separately.
(§3) All parameters were derived from individual animal data sets.
(§4) Relative data set weight was always set to 1.

in vivo [5] = conditions: for T1/2 (plasma half-life): Study 1, single i.v. bolus in tetraglycol, 0.2 mg/kg praziquantel (actual 1.62, 0.21, 0.21 mg/kg), n = 6 per group, HPLC-MS/MS, geometric mean (geometric CV%)
Experimental: as §1, §2, §3, §4
The basic plasma PK characteristics of the active AIs tigolaner, emodepside and praziquantel were profiled after i.v. dosing based on at least the following parameters: Clearance (Cl), V, extrapolated concentration at time of dosing (C0), area under the curve until the last concentration above LoQ (AUClast), AUCinf, dose normalized AUClast and AUCinf (AUClast/D, AUCinf/D), mean residence time (MRT), and half-life. The statistical group mean estimates and suitable statistical parameters describing the distribution (scattering) were provided.

fleas and ticks = conditions: cats, single topical dose, minimum recommended dose 14.5 mg/kg body weight, ref Cvejić et al., 2022a, b; Mencke et al., 2023; cited from earlier work
From the text: (§5) Tigolaner, from the bis-pyrazole class of compounds has potent antiparasitic properties acting against γ-aminobutyric acid- (GABA-) and glutamate-gated chloride channels with significant selectivity for insect neurons over mammalian neurons ([EMA, 2022]). Tigolaner has a high potency against insects and acarids by exposure via their feeding, i.e. fleas and ticks that initiate feeding will be exposed to the AI ([Cvejić et al., 2022a], [b]; [Mencke et al., 2023]). A single tigolaner dose administered topically at the minimum recommended dose of 14.5 mg/kg body weight (BW) on cats provides 13 we ...

fleas = conditions: cats, topical, ref EMA, 2022; Mencke et al., 2023; cited from earlier work
From the text: as §5

[6] = parameters: method as in Jacquot et al., 2021; conditions: cats, Nexgard Combo spot-on, ref Jacquot et al., 2021; cited from earlier work
From the text: (§6) Felpreva® combines the established Profender® AIs, emodepside and praziquantel with tigolaner.

[7] = in vivo; cited from earlier work
From the text: as §6

[8] = 2.5x dose relative to 1x dose, topical Felpreva, cats
[9] = 5x dose relative to 1x dose, topical Felpreva, cats
[10] = cats, single topical Felpreva 2.5x
[11] = cats, single topical Felpreva 5x
[12] = topical Felpreva, dose rates from 1x to 2.5x and 5x, cats, Cmax/D and AUClast/D
[13] = Domestic Shorthair, in vivo, iv, 0.2 mg/kg
[14] = cats, Study 2, single topical Felpreva 2.5x, 0.37 ml/kg
[15] = cats, Study 2, single topical Felpreva 5x, 0.74 ml/kg
[16] = cats, 1.5 mg/kg tigolaner, 0.2 mg/kg emodepside
[17] = cats, single i.v. bolus, 1.5 mg/kg tigolaner, 0.2 mg/kg emodepside, 0.2 mg/kg praziquantel, n = 6, geometric mean (geometric CV%)

CC(C)C[C@H]1C(=O)O[C@H](Cc2ccc(N3CCOCC3)cc2)C(=O)N(C)[C@@H](CC(C)C)C(=O)O[C@H](C)C(=O)N(C)[C@@H](CC(C)C)C(=O)O[C@H](Cc2ccc(N3CCOCC3)cc2)C(=O)N(C)[C@@H](CC(C)C)C(=O)O[C@H](C)C(=O)N1C [Emodepside, emodepside]
route of clearance [1]: mainly cleared via the faeces | Tmax (in vivo [2]; Domestic Shorthair (DSH)): 36 h | AUC(0-inf) (in vivo [2]; Domestic Shorthair): 20600 ng·h/mL | AUC(0-t) (in vivo [2]; Domestic Shorthair): 20500 ng·h/mL | Cmax (in vivo [2]; Domestic Shorthair): 44.3 ng/mL | Tmax (in vivo [2]; Domestic Shorthair): 36.9 h | bioavailability (in vivo [2]; Domestic Shorthair): 90% | half-life (in vivo [2]; Domestic Shorthair): 348 h | AUClast/D (Geo CV%) ([3]; cats): 6.79 (38.7) h∗kg∗μg/l/μg | Cmax/D (Geo CV%) ([3]; cats): 0.015 (61.0) kg∗μg/l/μg | Ratio AUClast/D [4, 8]: 0.64 | Ratio Cmax/D [4, 8]: 0.60 | Ratio AUClast/D [4, 9]: 0.66 | Ratio Cmax/D [4, 9]: 0.53 | AUC(0-inf) ([4]; European Shorthair (ESH), in vivo, topical or ocular, cats, Study 2, single topical Felpreva 2.5x, 0.37 ml/kg): 36100 ng·h/mL | AUC(0-inf) ([4]; European Shorthair (ESH), in vivo, topical or ocular, cats, Study 2, single topical Felpreva 5x, 0.74 ml/kg): 62500 ng·h/mL | Cmax ([4]; European Shorthair (ESH), in vivo, topical or ocular, Cmax, cats, Study 2, single topical Felpreva 5x, 0.74 ml/kg (72.5 mg/kg tigolaner, 15 mg/kg emodepside, 60 mg/kg praziquantel)): 106 ng/mL | half-life ([4]; European Shorthair (ESH), in vivo, topical or ocular, Study 2, single topical Felpreva 2.5x, 0.37 ml/kg): 329 h | half-life ([4]; European Shorthair (ESH), in vivo, topical or ocular, Study 2, single topical Felpreva 5x, 0.74 ml/kg): 328 h | Tmax ([4]; European Shorthair (ESH), in vivo, topical or ocular, Tmax, cats, Study 2, single topical Felpreva 2.5x, 0.37 ml/kg): 47.8 h | Tmax ([4]; European Shorthair (ESH), in vivo, topical or ocular, Tmax, cats, Study 2, single topical Felpreva 5x, 0.74 ml/kg): 61.9 h | AUClast/D (Geo CV%) [4, 10]: 4.32 (44.2) h∗kg∗μg/l/μg | Cmax/D (Geo CV%) [4, 10]: 0.009 (71.4) kg∗μg/l/μg | AUClast/D (Geo CV%) [4, 11]: 4.5 (36.5) h∗kg∗μg/l/μg | Cmax/D (Geo CV%) [4, 11]: 0.008 (35.7) kg∗μg/l/μg | dose proportionality of plasma PK (rate and extent) [4, 12]: less than proportional increase | AUC(0-inf) (in vivo [5]; [13]): 1600 ng·h/mL | AUC(0-t) (in vivo [5]; [13]): 1500 ng·h/mL | half-life (in vivo [5]; [13]): 202 h | Vd (in vivo [5]; in vivo, iv, 0.2 mg/kg): 38.2 L/kg | clearance (in vivo [5]; in vivo, iv, 0.2 mg/kg): 2.18 mL/min/kg

Cn1nc(C(F)(F)C(F)(F)F)c(C(F)(F)F)c1-n1cc(-c2ccc(Cl)c(C(=O)NC3(C#N)CC3)c2)cn1 [Tigolaner, tigolaner]
extent of metabolism (conclusion from excretion) ([1]; cats, Study 3, topical administration, 28 days): poorly metabolized | duration of flea and tick control (fleas and ticks): 13 weeks | onset of efficacy, fleas already on the cat prior to treatment (fleas): ≤ 12 h | onset of efficacy, new flea infestation, after two months (fleas): ≤ 24 h | onset of efficacy, new flea infestation, for two months (fleas): ≤ 8 h | absolute bioavailability after topical application ([3]; cats, Study 1, Fabs = AUCinf/D spot-on / AUCinf/D i.v., group geometric means): 57% | AUClast/D (Geo CV%) ([3]; cats): 103.16 (32.9) h∗kg∗μg/l/μg | Cmax/D (Geo CV%) ([3]; cats): 0.092 (37.9) kg∗μg/l/μg | Ratio AUClast/D [4, 8]: 1.05 | Ratio Cmax/D [4, 8]: 0.91 | Ratio AUClast/D [4, 9]: 0.76 | Ratio Cmax/D [4, 9]: 0.58 | Cmax ([4]; cats, Study 2, single topical Felpreva 2.5x, 0.37 ml/kg (36.25 mg/kg tigolaner, 7.5 mg/kg emodepside, 30 mg/kg praziquantel)): 2496.9 ng/mL | AUCinf [4, 14]: 3308 mg∗h/l | T1/2 [4, 14]: 569.9 h | Tmax [4, 14]: 440.4 h | Cmax ([4]; cats, Study 2, single topical Felpreva 5x, 0.74 ml/kg (72.5 mg/kg tigolaner, 15 mg/kg emodepside, 60 mg/kg praziquantel)): 3574.2 ng/mL | AUCinf [4, 15]: 5393 mg∗h/l | T1/2 [4, 15]: 563.2 h | AUClast/D (Geo CV%) [4, 10]: 108.66 (142.5) h∗kg∗μg/l/μg | Cmax/D (Geo CV%) [4, 10]: 0.084 (137.8) kg∗μg/l/μg | AUClast/D (Geo CV%) [4, 11]: 78.5 (30.7) h∗kg∗μg/l/μg | Cmax/D (Geo CV%) [4, 11]: 0.053 (34.0) kg∗μg/l/μg | dose proportionality of plasma PK (rate and extent) [4, 12]: less than proportional increase | T1/2 (plasma half-life) (in vivo [5]; [16]): 515.4 (54.2) h | AUCinf (in vivo [5]; [17]): 300.1 (29.1) mg∗h/l | AUClast (in vivo [5]; [17]): 298 (29.5) mg∗h/l | Cl_pred (systemic clearance) (in vivo [5]; [17]): 0.005 (31.7) l/h/kg | Vz_pred (volume of distribution) (in vivo [5]; [17]): 4.00 (56.5) l/kg

O=C(C1CCCCC1)N1CC(=O)N2CCc3ccccc3C2C1 (stereo not shown) [Praziquantel, praziquantel]
route of clearance [1]: equally cleared via the faeces and via the urine for males | serum half-life [6]: 103 h | Tmax [7]: 18.7 ± 47 h | maximum serum concentration [7]: 61.3 ± 44.1 µg/L | serum half-life [7]: 98.4 ± 36 h | AUClast/D (Geo CV%) ([3]; cats): 0.30 (19.9) h∗kg∗μg/l/μg | Cmax/D (Geo CV%) ([3]; cats): 0.004 (57.2) kg∗μg/l/μg | AUCinf (total plasma exposure) ([3]; in vivo): 3.7 (19.6) mg∗h/l | AUClast ([3]; in vivo): 3.6 (19.7) mg∗h/l | Tmax ([3]; in vivo): 4.8 (107.7) h | absolute bioavailability after topical application ([3]; in vivo): 48% | bioavailability after topical application, first 24 h ([3]; in vivo): 6% | plasma elimination half-life ([3]; in vivo): 240 h | AUClast/D (Geo CV%) [4, 10]: 0.19 (47.7) h∗kg∗μg/l/μg | Cmax/D (Geo CV%) [4, 10]: 0.003 (51.7) kg∗μg/l/μg | AUClast/D (Geo CV%) [4, 11]: 0.25 (22.2) h∗kg∗μg/l/μg | Cmax/D (Geo CV%) [4, 11]: 0.003 (39.8) kg∗μg/l/μg | Ratio Cmax/D ([4]; in vivo): 0.75 | dose proportionality of plasma PK (rate and extent) ([4]; in vivo): less than proportional increase | T1/2 (plasma half-life) (in vivo [5]; [16]): 1.8 (94.8) h | Cl_pred (systemic clearance) (in vivo [5]; in vivo): 1.861 (32.2) l/h/kg | Vz_pred (volume of distribution) (in vivo [5]; in vivo): 4.95 (142.2) l/kg
